A short description of this data set: activity coefficient (dimensionless); of the first substance listed, at infinite dilution; xn = mol fraction of the nth substance listed. The settings on record: 101.33 kPa, Liquid, Chromatography, x1 = 0.

Numbers after ± are expanded uncertainties.

The text below walks through data of the NIST ThermoML archive (doi:10.1016/j.jct.2016.08.008).

As for `CCCCCCCCC` [nonane] + CCCCCCCCCCCCn1cc[n+](C)c1.O=S(=O)([N-]S(=O)(=O)C(F)(F)F)C(F)(F)F, the activity coefficient is, setting by setting: (318.15 K) 4.92 ± 0.34; (328.15 K) 4.97 ± 0.34; (338.15 K) 5.03 ± 0.34; (348.15 K) 5.08 ± 0.35; (358.15 K) 5.13 ± 0.35; (368.15 K) 5.17 ± 0.35.

On to `C=CCCCCCC` [oct-1-ene] + CCCCCCCCCCCCn1cc[n+](C)c1.O=S(=O)([N-]S(=O)(=O)C(F)(F)F)C(F)(F)F, for which the activity coefficient is 3.03 ± 0.21 (318.15 K); 3.1 ± 0.21 (328.15 K); 3.17 ± 0.22 (338.15 K); 3.23 ± 0.22 (348.15 K); 3.29 ± 0.22 (358.15 K); 3.35 ± 0.23 (368.15 K).

Take `CCCCCCCC` [octane] + CCCCCCCCCCCCn1cc[n+](C)c1.O=S(=O)([N-]S(=O)(=O)C(F)(F)F)C(F)(F)F: the activity coefficient (318.15 K) was determined as 4.17 ± 0.28; the activity coefficient (328.15 K) is 4.22 ± 0.29; the activity coefficient (338.15 K) came to 4.27 ± 0.29; the activity coefficient (348.15 K) amounted to 4.32 ± 0.29; the activity coefficient (358.15 K) was determined as 4.37 ± 0.3; the activity coefficient (368.15 K) was 4.42 ± 0.3.

For the compound `CCCCCO` [pentan-1-ol] + CCCCCCCCCCCCn1cc[n+](C)c1.O=S(=O)([N-]S(=O)(=O)C(F)(F)F)C(F)(F)F, the activity coefficient runs as follows: (318.15 K) 1.52 ± 0.1; (328.15 K) 1.46 ± 0.1; (338.15 K) 1.4 ± 0.09; (348.15 K) 1.35 ± 0.09; (358.15 K) 1.3 ± 0.08; (368.15 K) 1.26 ± 0.08.

For the compound `CCCC(C)=O` [pentan-2-one] + CCCCCCCCCCCCn1cc[n+](C)c1.O=S(=O)([N-]S(=O)(=O)C(F)(F)F)C(F)(F)F, the activity coefficient came to 0.421 ± 0.035 (318.15 K); 0.445 ± 0.036 (328.15 K); 0.468 ± 0.037 (338.15 K); 0.492 ± 0.037 (348.15 K); 0.516 ± 0.038 (358.15 K); 0.539 ± 0.039 (368.15 K).

As for `CCC(=O)CC` [pentan-3-one] + CCCCCCCCCCCCn1cc[n+](C)c1.O=S(=O)([N-]S(=O)(=O)C(F)(F)F)C(F)(F)F, the activity coefficient is 0.418 ± 0.035 (318.15 K); 0.444 ± 0.036 (328.15 K); 0.47 ± 0.037 (338.15 K); 0.496 ± 0.038 (348.15 K); 0.521 ± 0.039 (358.15 K); 0.546 ± 0.04 (368.15 K).

In the case of `CCCCC` [pentane] + CCCCCCCCCCCCn1cc[n+](C)c1.O=S(=O)([N-]S(=O)(=O)C(F)(F)F)C(F)(F)F, the activity coefficient by setting is: (318.15 K) 2.55 ± 0.17; (328.15 K) 2.6 ± 0.18; (338.15 K) 2.66 ± 0.18; (348.15 K) 2.71 ± 0.18; (358.15 K) 2.76 ± 0.19; (368.15 K) 2.81 ± 0.19.

Turning to `CCCO` [propan-1-ol] + CCCCCCCCCCCCn1cc[n+](C)c1.O=S(=O)([N-]S(=O)(=O)C(F)(F)F)C(F)(F)F, the activity coefficient was determined as 1.45 ± 0.1 (318.15 K); 1.36 ± 0.09 (328.15 K); 1.29 ± 0.08 (338.15 K); 1.22 ± 0.08 (348.15 K); 1.16 ± 0.07 (358.15 K); 1.11 ± 0.07 (368.15 K).

Take `CC(C)O` [propan-2-ol] + CCCCCCCCCCCCn1cc[n+](C)c1.O=S(=O)([N-]S(=O)(=O)C(F)(F)F)C(F)(F)F: the activity coefficient came out at 1.34 ± 0.09 (318.15 K); 1.26 ± 0.08 (328.15 K); 1.18 ± 0.08 (338.15 K); 1.12 ± 0.07 (348.15 K); 1.07 ± 0.07 (358.15 K); 1.02 ± 0.06 (368.15 K).

Turning to `CCCc1ccccc1` [propylbenzene] + CCCCCCCCCCCCn1cc[n+](C)c1.O=S(=O)([N-]S(=O)(=O)C(F)(F)F)C(F)(F)F, the activity coefficient was 1.1 ± 0.07 (318.15 K); 1.15 ± 0.07 (328.15 K); 1.21 ± 0.08 (338.15 K); 1.25 ± 0.08 (348.15 K); 1.3 ± 0.08 (358.15 K); 1.35 ± 0.09 (368.15 K).

On to `c1ccncc1` [pyridine] + CCCCCCCCCCCCn1cc[n+](C)c1.O=S(=O)([N-]S(=O)(=O)C(F)(F)F)C(F)(F)F, for which the activity coefficient runs as follows: (318.15 K) 0.387 ± 0.034; (328.15 K) 0.404 ± 0.034; (338.15 K) 0.42 ± 0.04; (348.15 K) 0.435 ± 0.035; (358.15 K) 0.451 ± 0.036; (368.15 K) 0.466 ± 0.036.

In the case of `C=Cc1ccccc1` [styrene] + CCCCCCCCCCCCn1cc[n+](C)c1.O=S(=O)([N-]S(=O)(=O)C(F)(F)F)C(F)(F)F, the activity coefficient came to 0.632 ± 0.044 (318.15 K); 0.666 ± 0.045 (328.15 K); 0.702 ± 0.047 (338.15 K); 0.736 ± 0.049 (348.15 K); 0.771 ± 0.05 (358.15 K); 0.804 ± 0.052 (368.15 K).

For the compound `C1CCOC1` [tetrahydrofuran] + CCCCCCCCCCCCn1cc[n+](C)c1.O=S(=O)([N-]S(=O)(=O)C(F)(F)F)C(F)(F)F, the activity coefficient by setting is: (318.15 K) 0.394 ± 0.034; (328.15 K) 0.417 ± 0.035; (338.15 K) 0.44 ± 0.04; (348.15 K) 0.462 ± 0.036; (358.15 K) 0.484 ± 0.037; (368.15 K) 0.508 ± 0.038.

On to `c1ccsc1` [thiophene] + CCCCCCCCCCCCn1cc[n+](C)c1.O=S(=O)([N-]S(=O)(=O)C(F)(F)F)C(F)(F)F, for which the activity coefficient reads like this: (318.15 K) 0.559 ± 0.04; (328.15 K) 0.579 ± 0.041; (338.15 K) 0.6 ± 0.042; (348.15 K) 0.62 ± 0.043; (358.15 K) 0.639 ± 0.044; (368.15 K) 0.658 ± 0.045.

As for `Cc1ccccc1` [toluene] + CCCCCCCCCCCCn1cc[n+](C)c1.O=S(=O)([N-]S(=O)(=O)C(F)(F)F)C(F)(F)F, the activity coefficient by setting is: (318.15 K) 0.699 ± 0.047; (328.15 K) 0.732 ± 0.048; (338.15 K) 0.765 ± 0.05; (348.15 K) 0.8 ± 0.052; (358.15 K) 0.832 ± 0.054; (368.15 K) 0.864 ± 0.055.

As to `O` [water] + CCCCCCCCCCCCn1cc[n+](C)c1.O=S(=O)([N-]S(=O)(=O)C(F)(F)F)C(F)(F)F, the activity coefficient is, setting by setting: (318.15 K) 4.49 ± 0.31; (328.15 K) 4.02 ± 0.27; (338.15 K) 3.64 ± 0.25; (348.15 K) 3.31 ± 0.23; (358.15 K) 3.03 ± 0.21; (368.15 K) 2.78 ± 0.19.
